{
  "source": "paper PMC4669722",
  "about": "“Antitumour potential of BPT: a dual inhibitor of cdk4 and tubulin polymerization” (Cell Death & Disease, 2015)",
  "key": {"Cdk4-cyclin D1": {"target": "Cdk4-cyclin D1 (Homo sapiens, UniProt P11802)", "sequence (P11802 whole entry)": "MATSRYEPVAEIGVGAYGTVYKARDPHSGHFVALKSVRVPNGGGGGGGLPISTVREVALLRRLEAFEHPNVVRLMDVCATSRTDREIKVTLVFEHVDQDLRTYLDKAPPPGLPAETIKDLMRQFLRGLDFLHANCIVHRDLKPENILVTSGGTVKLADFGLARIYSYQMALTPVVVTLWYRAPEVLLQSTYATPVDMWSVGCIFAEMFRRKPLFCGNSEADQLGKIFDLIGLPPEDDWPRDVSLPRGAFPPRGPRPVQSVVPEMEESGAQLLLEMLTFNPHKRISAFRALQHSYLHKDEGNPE", "sequence (P24385 whole entry partner)": "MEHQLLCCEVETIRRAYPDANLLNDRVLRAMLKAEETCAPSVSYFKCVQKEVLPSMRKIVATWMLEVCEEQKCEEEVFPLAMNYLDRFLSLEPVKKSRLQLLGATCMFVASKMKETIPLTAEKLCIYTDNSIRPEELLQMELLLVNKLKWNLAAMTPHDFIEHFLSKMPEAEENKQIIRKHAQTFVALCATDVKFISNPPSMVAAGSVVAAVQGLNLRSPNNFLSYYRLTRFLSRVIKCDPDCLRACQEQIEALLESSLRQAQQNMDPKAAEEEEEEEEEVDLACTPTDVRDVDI", "assay": "In vitro kinase assay, Cdk4-cyclin D1 (in-house)", "format": "biochemical", "protocol": "(§1) The in vitro kinase assays for testing against Cdk4-cyclin D1, Cdk2-cyclin A, Cdk1-cyclin B1 and Cdk9-cyclin T1 were performed in-house. The methodology and results have been reported previously.[20], [30], [31], [32], [45] The kinase profiling for 58 representative kinases was carrried out commercially at Millipore Bioscience Division, Livingston, UK."}, "A549 (NSCLC; p53+, pRb+)": {"tested_on": "A549 (NSCLC; p53+, pRb+)", "assay": "Cell proliferation (MTT) assay, A549", "format": "cell-based", "details": "Homo sapiens, 48 h, read-out: IC50 cell growth inhibition, A549", "protocol": "(§2) All 10 human cancer cell lines were maintained at 37 °C in 5% CO2 in RPMI-1640 medium, supplemented with 10% foetal calf serum and 100 μg/ml normocin. The 10 cancer cell lines used for screening were all obtained from ATCC (Manassas, VA, USA); they were the NSCLC (a form of cancer that is resistant to chemotherapy) lines: NCI-H460 (pRb^+, p53^+), A549 (pRb^+, p53^+), Calu-1 (pRb^+, p53-null), NCI-H1299 (pRb^+, p53-null), NCI-H358 (pRb-null, p53-null); the colon cancer line LS174T (pRb^+, p53^+); the prostate cancer line PC-3 (pRb^+, p53-null); the pancreatic cancer line MiaPaca (pRb^+, p53-mutant). The genotypes within brackets indicate the status of the tumour suppressor proteins pRb and p53. The mouse embryonic normal hepatic cell line (BNL CL2) and its SV40 large T-antigen-transformed counterpart cell line (BNL SV A.8) were also purchased from ATCC. The large T-antigen inactivates the tumour suppressor proteins p53 and pRb. The detailed procedure of cell proliferation (MTT) assay and IC50 determination was described previously.[32]"}, "PDGFR": {"target": "PDGFR", "assay": "Kinase profiling (Millipore), PDGFR", "format": "biochemical", "protocol": "as §1"}, "[1]": {"tested_on": "NCI-H460 (NSCLC; p53+, pRb+)", "assay": "Cell proliferation (MTT) assay, NCI-H460", "format": "cell-based", "details": "Homo sapiens, 48 h, read-out: IC50 cell growth inhibition, NCI-H460", "protocol": "as §2"}, "PKA": {"target": "PKA (Homo sapiens, UniProt P17612)", "assay": "Kinase profiling (Millipore), PKA", "format": "biochemical", "protocol": "as §1"}, "pBluescript plasmid DNA": {"tested_on": "pBluescript plasmid DNA", "assay": "Topoisomerase I catalysed DNA relaxation or unwinding assay", "format": "biochemical", "protocol": "For assay, 5 nM supercoiled pBluescript d-s plasmid DNA and 10 U of topoisomerase-I active enzyme were used in each reaction well. To ensure that the assay determines the DNA-intercalating property of compounds and not topoisomerase I inhibition, in a parallel experiment relaxed plasmid DNA was first prepared by treating with topo I enzyme for 30 min and then used as an initial substrate for the assay. DNA relaxation assays were performed in the presence or absence of compounds in 40 μl of DNA unwinding assay buffer. After 30 min incubation at 37 °C, reaction mixtures were treated with 3 μl of 250 mM EDTA and extracted with phenol/chloroform. The DNA was dissolved in tris-EDTA buffer, pH 8.0. The samples (20 μl) were treated with 2 μl of 2.5% SDS, mixed with 2.5 μl agarose gel loading buffer (10x) and subjected to electrophoresis on a 0.8% agarose gel without EtBr (separating the DNA in the presence of EtBr would convert the relaxed DNA into the supercoiled form). After the electrophoretic separation, DNA bands were stained with 1 μg/ml EtBr and visualized using a UV illuminator. The compounds were compared with fascaplysin, which is a known DNA-intercalating molecule. Camptothecin, which is a known topoisomerase- I inhibitor, was used to test the activity and inhibition of enzyme."}, "[2]": {"tested_on": "BNL CL2 (mouse normal hepatic cells)", "assay": "Cell proliferation (MTT) assay, BNL CL2", "format": "cell-based", "protocol": "as §2"}, "[3]": {"tested_on": "BNL SV A.8 (mouse hepatic; SV40-mediated transformed cells)", "assay": "Cell proliferation (MTT) assay, BNL SV A.8", "format": "cell-based", "protocol": "as §2"}, "MEK1": {"target": "MEK1 (Homo sapiens, UniProt Q02750)", "sequence (Q02750 whole entry)": "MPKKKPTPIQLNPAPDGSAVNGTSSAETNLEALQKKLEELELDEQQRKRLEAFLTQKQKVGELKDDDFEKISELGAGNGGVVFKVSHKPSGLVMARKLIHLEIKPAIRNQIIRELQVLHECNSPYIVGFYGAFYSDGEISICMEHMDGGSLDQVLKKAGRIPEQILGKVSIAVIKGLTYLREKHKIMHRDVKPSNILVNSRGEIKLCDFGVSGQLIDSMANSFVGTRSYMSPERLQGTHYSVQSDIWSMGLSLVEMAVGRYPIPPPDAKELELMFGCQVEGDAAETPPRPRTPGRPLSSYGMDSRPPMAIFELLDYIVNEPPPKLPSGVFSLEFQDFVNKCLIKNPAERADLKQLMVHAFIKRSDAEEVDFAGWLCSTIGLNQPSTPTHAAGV", "assay": "Kinase profiling (Millipore), MEK1", "format": "biochemical", "protocol": "as §1"}, "[4]": {"assay": "Body weight measurements in xenograft models", "format": "in vivo, SCID mice", "protocol": "The body weights of animals in different treatment and control groups were monitored by taking the measurements daily during the treatment schedule. By considering the body weight at the start of the treatment as 100%, the percent weight loss was calculated on subsequent days of treatments."}, "Calu-1 cells": {"tested_on": "Calu-1 cells", "assay": "Cell cycle analysis, Calu-1", "format": "cell-based, human", "details": "p53-null, non-functional mitotic-spindle checkpoint", "protocol": "The untreated (control) and treated (with test compounds) cells were harvested by trypsinization, washed once with PBS and then fixed in 70% chilled (−20 °C) ethanol for minimum 1 h. After the fixation step, cells were centrifuged for 5 min at 3000 × g at room temperature, and the pellet was suspended in PBS containing 50 μg/ml propidium iodide (Sigma-Aldrich, Dorset, UK; cat. no. P-4170) and 0.5 mg/ml DNase-free ribonuclease (Sigma-Aldrich; cat. no. R-5503). The cells were stained for 1 h in the dark at 4 °C. Cell cycle analysis was performed on the Beckman Coulter (Epics Altra) fluorescence-activated cell sorter (Beckman Coulter UK Ltd, Buckinghamshire, UK). To gate all the events that represent single cells, and not cell doublets or cell clumps, the following analyses were performed on the samples. Cytograms of propidium iodide fluorescence peak signal versus integrated fluorescence or the linear signal were plotted. All data points on the straight line were isolated in a single gate and the gated data was further used for plotting a histogram that represents a complete cell cycle. The total number of events was not allowed to exceed 200 events per s. Data acquisition was stopped after a minimum of 10 000 events had been collected.\nFig. S4. Cell cycle analysis of calu-1 cells upon BPT treatment. […]"}, "[5]": {"details": "BNL CL2, concentration used in long-term survival assay (Fig. S3)"}, "[6]": {"details": "BNL SV A.8, concentration used in long-term survival assay (Fig. S3)"}},
  "note": "Entries after “also recorded” stand apart in the source; their conditions may differ. Read-outs that look alike come from different tables or passages of the source.",
  "data": [
    {"smiles": "O=C(c1ccccc1-c1ccccc1)N1CCc2c([nH]c3ccccc23)C1", "note": "[BPT, 2-(biphenyl-2-carbonyl)-2,3,4,9-tetrahydro-1H-pyrido[3,4-b]indole]", "values": [
      {"measurement": "selectivity for Cdk4-cyclin D1 with respect to Cdk2-cyclin A", "setting": "Cdk4-cyclin D1", "value": 83, "unit": "fold"},
      {"measurement": "IC50", "setting": "Cdk4-cyclin D1; three independent experiments, read-out: IC50 (mean±S.D.), Cdk4-cyclin D1", "value": "10000 ± 1200", "unit": "nM"},
      {"measurement": "IC50", "setting": "A549 (NSCLC; p53+, pRb+)", "value": 920, "unit": "nM"},
      {"measurement": "IC50", "setting": "PDGFR", "value": "> 10000", "unit": "nM"},
      {"measurement": "IC50", "setting": "[1]", "value": 600, "unit": "nM"},
      {"measurement": "IC50", "setting": "PKA", "value": "> 10000", "unit": "nM"},
      {"measurement": "state of relaxed (negatively supercoiled) plasmid DNA after treatment", "setting": "pBluescript plasmid DNA; relaxed pBluescript DNA as substrate, BPT up to 100 μM, fascaplysin 1 μM", "value": "remained relaxed"},
      {"measurement": "hindrance of topoisomerase-I catalysed DNA relaxation", "setting": "pBluescript plasmid DNA; supercoiled pBluescript DNA, fascaplysin 10 and 1 µM, BPT 10 and 100 µM", "value": "does not hinder DNA relaxation process; also recorded: does not intercalate"},
      {"measurement": "IC30", "setting": "[2]; [5]", "value": 400, "unit": "nM"},
      {"measurement": "IC70", "setting": "[2]; [5]", "value": 900, "unit": "nM"},
      {"measurement": "IC50", "setting": "[2]; Mus musculus, BNL CL.2, 48 h, MTT, read-out: IC50 cell growth inhibition, BNL CL2", "value": 720, "unit": "nM"},
      {"measurement": "IC20", "setting": "[2]; Mus musculus, BNL CL.2, BNL CL2, concentration used in long-term survival assay (Fig. S3)", "value": 250, "unit": "nM"},
      {"measurement": "IC50", "setting": "[2]; Mus musculus, BNL CL.2, BNL CL2, concentration used in long-term survival assay (Fig. S3), read-out: IC50", "value": 600, "unit": "nM"},
      {"measurement": "IC30", "setting": "[3]; [6]", "value": 400, "unit": "nM"},
      {"measurement": "IC70", "setting": "[3]; [6]", "value": 900, "unit": "nM"},
      {"measurement": "IC50", "setting": "[3]; Mus musculus, 48 h, MTT, read-out: IC50 cell growth inhibition, BNL SV A.8", "value": 750, "unit": "nM"},
      {"measurement": "IC20", "setting": "[3]; Mus musculus, BNL SV A.8, concentration used in long-term survival assay (Fig. S3)", "value": 250, "unit": "nM"},
      {"measurement": "IC50", "setting": "[3]; Mus musculus, BNL SV A.8, concentration used in long-term survival assay (Fig. S3), read-out: IC50", "value": 600, "unit": "nM"},
      {"measurement": "IC50", "setting": "MEK1", "value": "> 10000", "unit": "nM"},
      {"measurement": "weight loss of treated animals", "setting": "[4]; SCID mice-HCT116 tumour model, 100 mpk, of starting weight", "value": "< 10", "unit": "%"},
      {"measurement": "weight loss of treated animals", "setting": "[4]; both tumour models (HCT-116 and NCI-H460)", "value": "statistically insignificant weight loss"},
      {"measurement": "phase of cell cycle block in Calu-1 cells", "setting": "Calu-1 cells", "value": "blocks only at the G0/G1 phase"}
    ]}
  ]
}
